Here are results for six molecules from patent publication US11896650B2, “Enhancing chemotherapy in medulloblastoma and glioblastoma with high basal p53 levels” (GEORGETOWN UNIVERSITY, priority 2018, dated 2024).

Assay type in all cases: cell-based
One experiment has as its system p110. Nature of the experiment: Cell viability of cells overexpressing p110 with added mTOR/AKT signaling inhibitor. On the procedure:
FIGS. 3A, 3B, 3C, 3D, and 3E show the effects of over expression of p110-caax on D556 and D283 cell survival. D556 cells were transformed with p110 or control plasmid, and Western blots for p110 and β-actin were run (FIG. 3A). The effects of overexpression of p110 on cell viability were determined via Trypan blue assay on D283 cells (FIG. 3B, upper right panel) and D556 cells (FIG. 3C, lower left panel) showing Trypan blue assay results; lower middle panel showing). Cell viability for D556 cells was also measured by propidium iodide (PI) staining and measured by flow cytometry (FIG. 3D, lower middle panel)). Reversal of chemosensitivity induced by p110 overexpression is shown when an inhibitor of mTOR/AKT signaling (Rad001/Everolimus) is added (FIG. 3E)
D556 cells were transformed with p110 or control plasmid and Western blots for p110 and β-actin were run (FIG. 3A). The effects of overexpression of p110 on cell viability were determined via Trypan blue assay on D283 cells (FIG. 3B) and D556 cells (FIG. 3C). Cell viability for D556 cells was also measured by propidium iodide (PI) staining and measured by flow cytometry (FIG. 3D).

The test system of experiment [1] is D556 cells. Nature of the experiment: Cell survival of D556 cells after p53 knockdown and drug treatment. The settings on record: 18 hours treatment. The protocol:
(§1) Comparative sensitivities of D556 cells treated with cisplatin (FIG. 6B) or vincristine (FIG. 6C) were tested at the concentrations shown and in the presence or absence of thymosin β-4 (5 nM). * p<0.05, N>3 separate experiments.
(§2) For chemosensitivity testing, the effects of p53 knockdown on cell survival of D556 cells treated with doxorubicin (dox), vincristine (vinc) and cisplatin (csp) was further assessed.

The test system of the next experiment is pmTOR in D556 cells. Briefly: Western blot for pmTOR in D556 cells infected with p53 shRNA or control pLKO lentivirus. The protocol: D556 cells were infected with either p53 shRNA or control pLKO lentivirus and Western blotting was performed to show the effect of p53 inhibition on pmTOR.
Experiment [2] has as its system D556 cells. Nature of the experiment: Chemosensitivity testing of D556 cells with cisplatin or vincristine in presence or absence of Tβ-4. Particulars: Tβ-4 5 nM; p<0.05. On the procedure:
as §1, §2

A further experiment deals with D283 cells. Briefly: Cell viability of D283 cells treated with chemotherapeutic agents with or without Tβ-4 (propidium iodide staining, flow cytometry). On the procedure:
(§3) FIGS. 4A, 4B, and 4C show the effects of thymosin beta-4 (Tβ-4) on D556 and D283 cell survival. For cell viability assays, D556 cells (FIG. 4A) and D283 cells (FIG. 4B) were treated with DMSO, doxorubicin, or VMY in the presence or absence of Tβ-4, and cell viability as measured using propidium iodide (PI) staining with flow cytometry. Control cells were untreated. […] GADPH expression was used as a control.
(§4) The effect of Tβ-4 was evaluated using a cell viability assay for D556 and D283 cells. D556 and D283 cells were treated with 5 nM Tβ-4 and either doxorubicin or VMY. Viability of D556 cells (FIG. 4A) and of D283 cells (FIG. 4B) was measured using propidium iodide (PI) staining with flow cytometry. A dose response curve was performed for D556 cells treated with vincristine alone or vincristine plus Tβ-4 using a cellular proliferation assay kit wst-1 (FIG. 4C).

Experiment [3] relates to Akt, PP2A (α and c subunit), PARP and RIP1 in D556 cells. Nature of the experiment: Western blot of D556 cells after Tβ-4 treatment. The protocol:
FIGS. 5A, 5B, 5C and 5D are Western blots showing that Tβ-4 treatment of D556 cells induces expression of Akt, PP2A (α and c subunits), PARP, and RIP1.
To further assess the mechanism of effect of Tβ-4 treatment of D556 cells, Western blot were performed.

In experiment [4] the test system is D556 cells. Nature of the experiment: Cell viability of D556 cells treated with chemotherapeutic agents with or without Tβ-4 (propidium iodide staining, flow cytometry; wst-1). On the procedure:
as §3, §4

Experiment [5] deals with D556 cells. Nature of the experiment: Apoptotic cell death of D556 cells after p53 and mTOR shRNA knockdown and drug treatment (trypan blue, annexin V/PI). The settings on record: p53 loss plus mTOR knockdown. The protocol:
FIGS. 2A, 2B and 2C show the effect of silencing of p53 and mTOR in D556 cells. FIG. 2A and FIG. 2B are bar graphs showing the proportion of cells undergoing apoptotic cell death as a result of infection with p53 shRNA, control pLKO, mTOR and both p53 and mTOR lentivirus in D556 cells treated for 18 hrs with DMSO, VMY (30 uM) or doxorubicin (1 uM) as assessed using Trypan blue (FIG. 2A) and annexin V and propidium iodide (PI) staining (FIG. 2B) and measured by flow cytometry. Data are shown as percent change in staining versus pLKO-control infected cells.
The proportion of cells undergoing apoptotic cell death as a result of infection with p53 shRNA, control pLKO, mTOR and both p53 and mTOR lentivirus in D556 cells treated for 18 hrs with DMSO, VMY (30 uM) or doxorubicin (1 uM) was assessed using trypan blue (FIG. 2A) and annexin V and propidium iodide (PI) staining (FIG. 2B) and measured by flow cytometry. Data were determined as the percent change in staining versus pLKO-control infected cells.

Where [6] appears, read: with doxorubicin, vincristine, VMY-1-103.

On to `CO[C@H]1C[C@@H]2CC[C@@H](C)[C@@](O)(O2)C(=O)C(=O)N2CCCC[C@H]2C(=O)O[C@H]([C@H](C)C[C@@H]2CC[C@@H](OCCO)[C@H](OC)C2)CC(=O)[C@H](C)/C=C(\C)[C@@H](O)[C@@H](OC)C(=O)[C@H](C)C[C@H](C)/C=C/C=C/C=C/1C` [Rad001/Everolimus, Everolimus], for which the “effect on chemosensitivity induced by p110 overexpression” value with p110 was “reversed the chemosensitivity induced by p110”.

Regarding `N.N.[Cl][Pt][Cl]` [cisplatin], the “cell survival of p53 shRNA infected D556 cells vs control pLKO lentivirus” value (“cell survival … vs control pLKO lentivirus” for short) in the experiment with D556 cells [1] is given as “lower percentage of cell survival”.

With `CC(C)[C@H](CO)Nc1nc(Nc2ccc(C(=O)NCCNS(=O)(=O)c3cccc4c(N(C)C)cccc34)c(Cl)c2)c2ncn(C(C)C)c2n1` [VMP], the “pmTOR level in cells infected with p53 shRNA vs control pLKO lentivirus” value in the experiment on pmTOR in D556 cells is on record as “induction of pmTOR”.

Take “Tβ-4: multifunctional regenerative peptide, sequence MSDKPDMAEIEKFDKSKLKKTETQEKNPLPSKETIEQEKQAGES (SEQ ID NO:1); PI3K activator; commercially available as RGN-352 (MSDKPDMAEIEKFDKSKLKKTETQEKNPLPSKETIEQEKQAGES; listed as Homo sapiens)”: in the experiment with D556 cells [2], the “sensitivity of D556 cells to cisplatin in presence vs absence of Tβ-4” value is reported as “significantly more sensitivity”. Besides, the “sensitivity of D556 cells to vincristine in presence vs absence of Tβ-4” value in the experiment with D556 cells [2] was “significantly more sensitivity”. For the same molecule, the “Tβ-4 sensitivity of cell line” value in the experiment with D283 cells (D286 cells) is “insensitive”; in the experiment with D556 cells [4] (D556 cells), “sensitive”. Besides, the “protection of D283 (p53 low) cells from chemotherapeutic agents” value in the experiment on D283 cells (setting [6]) is listed as “protects D283 (p53 low) cells from the same drugs”. The “protein induction by Western blot” value in experiment [3] is “induces Akt, PP2A (α and c subunit), PARP and RIP1”. Besides, the “sensitization of MB cells with high p53 levels to chemotherapeutic agents” value in the experiment on D556 cells [4] (setting [6]) is “sensitizes MB cells with high p53 levels to chemotherapeutic agents”.

For `COc1cccc2c1C(=O)c1c(O)c3c(c(O)c1C2=O)C[C@@](O)(C(=O)CO)C[C@@H]3O[C@H]1C[C@H](N)[C@H](O)[C@H](C)O1` [doxorubicin], the “chemoresistance of p53-suppressed D556 cells after shRNA knockdown of mTOR” value in the experiment on D556 cells [5] is listed as “restoring chemoresistance”. Also, the “pmTOR level in cells infected with p53 shRNA vs control pLKO lentivirus” value in the experiment with pmTOR in D556 cells is “induction of pmTOR”. For the same molecule, in the experiment with D556 cells [1], the “cell survival … vs control pLKO lentivirus” value is given as “lower percentage of cell survival”.

For the molecule `CC[C@]1(O)C[C@H]2CN(CCc3c([nH]c4ccccc34)[C@@](C(=O)OC)(c3cc4c(cc3OC)N(C=O)[C@H]3[C@@](O)(C(=O)OC)[C@H](OC(C)=O)[C@]5(CC)C=CCN6CC[C@]43[C@@H]65)C2)C1` [vincristine], the “chemoresistance of p53-suppressed D556 cells after shRNA knockdown of mTOR” value in the experiment on D556 cells [5] is reported as “restoring chemoresistance”. In addition, the “cell survival … vs control pLKO lentivirus” value in the experiment with D556 cells [1] is recorded as “lower percentage of cell survival”.
